Measurements as given in patent US20110190309A1, “PHARMACEUTICAL PRODUCT COMPRISING A […] RECEPTOR ANTAGONIST AND A Beta2-ADRENOCEPTOR AGONIST” (priority 2008, published 2011).
“And” between values parts separate entries of the source, which are not always exact repeats. Equal entries are not always repeated. Structures can show the parent of a compound that is named as a salt. Where two headings read alike, the source gives them in different places.

Columns and labels:
β2 = target: T1, β2 (Homo sapiens, UniProt P07550); assay: Adrenergic β2 mediated cAMP production in H292 cells (AlphaScreen); format: cell-based; conditions: Intrinsic Activity as a fraction relative to the maximum activity of formoterol
T1 construct: endogenous in cells; host or cells: H292 cells
T1 sequence (P07550 whole entry): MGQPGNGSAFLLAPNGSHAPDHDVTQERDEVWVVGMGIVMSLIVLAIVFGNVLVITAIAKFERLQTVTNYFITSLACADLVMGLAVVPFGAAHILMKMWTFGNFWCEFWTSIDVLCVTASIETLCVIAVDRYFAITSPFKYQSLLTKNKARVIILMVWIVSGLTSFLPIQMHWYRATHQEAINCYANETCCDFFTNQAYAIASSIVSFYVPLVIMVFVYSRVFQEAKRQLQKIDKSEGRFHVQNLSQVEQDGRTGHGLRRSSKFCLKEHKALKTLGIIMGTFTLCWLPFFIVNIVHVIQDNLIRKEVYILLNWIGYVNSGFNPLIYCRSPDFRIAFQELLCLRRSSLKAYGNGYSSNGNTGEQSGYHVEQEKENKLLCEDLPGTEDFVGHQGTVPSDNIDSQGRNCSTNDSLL
Procedure: H292 cells were grown in 225 cm2 flasks incubator at 37° C., 5% CO2 in RPMI medium containing, 10% (v/v) FBS (foetal bovine serum) and 2 mM L-glutamine.
Adherent H292 cells were removed from tissue culture flasks by treatment with Accutase™ cell detachment solution for 15 minutes. Flasks were incubated for 15 minutes in a humidified incubator at 37° C., 5% CO2. Detached cells were re-suspended in RPMI media (containing 10% (v/v) FBS and 2 mM L-glutamine) at 0.05×10^6 cells per mL. 5000 cells in 100 μL were added to each well of a tissue-culture-treated 96-well plate and the cells incubated overnight in a humidified incubator at 37° C., 5% CO2. The culture media was removed and cells were washed twice with 100 μL assay buffer and replaced with 50 μL assay buffer (HBSS solution containing 10 mM HEPES pH7.4 and 5 mM glucose). Cells were rested at room temperature for 20 minutes after which time 25 μL of rolipram (1.2 mM made up in assay buffer containing 2.4% (v/v) dimethylsulphoxide) was added. Cells were incubated with rolipram for 10 minutes after which time Compound A was added and the cells were incubated for 60 minutes at room temperature. The final rolipram concentration in the assay was 300 μM and final vehicle concentration was 1.6% (v/v) dimethylsulphoxide. The reaction was stopped by removing supernatants, washing once with 100 μL assay buffer and replacing with 50 μL lysis buffer. The cell monolayer was frozen at −80° C. for 30 minutes (or overnight).
The concentration of cAMP (cyclic adenosine monophosphate) in the cell lysate was determined using AlphaScreen™ methodology. […] The AlphaScreen™ signal was measured using an EnVision spectrophotometer (Perkin-Elmer Inc.) with the recommended manufacturer's settings. cAMP concentrations were determined by reference to a calibration curve determined in the same experiment using standard cAMP concentrations. […] Intrinsic Activity was expressed as a fraction relative to the maximum activity determined for formoterol in each experiment.

[1] = Gravimetric Vapour Sorption (GVS); format: physicochemical; conditions: at 80% RH
Procedure: Gravimetric Vapour Sorption (GVS) profiles were measured using a Surface Measurements Systems Dynamic Vapour Sorption DVS-1, or DVS Advantage GVS instruments. The solid sample ca. 1-5 mg was placed into a glass or wire mesh vessel and the weight of the sample was recorded during a dual cycle step method (40 to 90 to 0 to 90 to 0% relative humidity (RH), in steps of 10% RH).

[2] = target: T2, human muscarinic receptors (M3) (Homo sapiens, UniProt P20309); assay: Muscarinic Receptor Radioligand Binding Assay ([3H]-NMS); conditions: human M3 membranes
T2 construct: purchased
T2 sequence (P20309 whole entry): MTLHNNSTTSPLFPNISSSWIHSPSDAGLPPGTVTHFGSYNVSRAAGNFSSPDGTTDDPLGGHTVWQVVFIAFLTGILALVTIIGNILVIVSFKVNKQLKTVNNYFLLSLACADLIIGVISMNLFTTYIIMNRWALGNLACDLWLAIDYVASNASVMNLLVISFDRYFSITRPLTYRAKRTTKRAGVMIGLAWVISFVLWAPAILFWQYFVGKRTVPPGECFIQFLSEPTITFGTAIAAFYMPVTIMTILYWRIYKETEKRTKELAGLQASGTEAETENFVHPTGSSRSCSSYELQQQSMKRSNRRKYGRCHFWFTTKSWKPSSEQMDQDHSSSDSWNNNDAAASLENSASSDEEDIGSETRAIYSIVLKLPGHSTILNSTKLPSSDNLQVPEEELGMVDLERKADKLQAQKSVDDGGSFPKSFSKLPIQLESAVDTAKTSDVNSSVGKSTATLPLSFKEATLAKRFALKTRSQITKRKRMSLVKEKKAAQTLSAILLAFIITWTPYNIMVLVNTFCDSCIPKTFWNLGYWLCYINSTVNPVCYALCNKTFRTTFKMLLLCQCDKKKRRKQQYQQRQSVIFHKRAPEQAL
Procedure: The inhibitory effects of compounds of the muscarinic antagonists were determined by a Muscarinic Receptor Radioligand Binding Assay. Radioligand binding studies utilising [^3H]-N-methyl scopolamine ([^3H]-NMS) and commercially available cell membranes expressing the human muscarinic receptors (M2 or M3) were used to assess the affinity of muscarinic antagonists for M2 and M3 receptors. Membranes in TRIS buffer were incubated in 96-well plates with [^3H]-NMS and M3 antagonist at various concentrations for 3 hours. Membranes and bound radioligand were then harvested by filtration and allowed to dry overnight. Scintillation fluid was then added and the bound radioligand counted using a Can berra Packard Topcount scintillation counter

guinea pig trachea = assay: Bronchodilator activity in the guinea pig isolated tracheal ring preparation; conditions: methacholine 1 μM, 60 min, mean±s.e.mean
Procedure: Guinea pigs (300-500 g) were killed by cervical dislocation and the trachea was isolated. The trachea was cut into segments 2-3 cartilage rings in width and suspended in 10 ml organ baths in modified Krebs' solution (mM; NaCl, 90; NaHCO3, 45; KCl, 5; MgSO4.7H2O, 0.5; Na2HPO4.2H2O, 1; CaCl2, 2.25; glucose, 10; pH 7.4 gassed with 5% CO2, 95% O2 at 37° C.). The tracheal rings were attached to an isometric force transducer for the measurement of isometric tension. The tissues were washed and a force of 1 g was applied to each tissue. The rings were contracted with methacholine (1 μM). Once the contraction had reached a plateau, vehicle (0.01% DMSO in distilled H2O), indacaterol (10 nM), N-[2-(Diethylamino)ethyl]-N-(2-{[2-(4-hydroxy-2-oxo-2,3-dihydro-1,3-benzothiazol-7-yl)ethyl]amino}ethyl)-3-[2-(1-naphthyl)ethoxy]propanamide dihydrobromide (10 nM), N-Cyclohexyl-N^3-[2-(3-fluorophenyl)ethyl]-N-(2-{[2-(4-hydroxy-2-oxo-2,3-dihydro-1,3-benzothiazol-7-yl)ethyl]amino}ethyl)-(3-alaninamide di-D-mandelate salt (1 nM), (R)-3-(1-Phenyl-cycloheptanecarbonyloxy)-1-(pyridin-2-ylcarbamoylmethyl)-1-azonia-bicyclo[2.2.2]octane bromide (1 nM), a combination of (R)-3-(1-Phenyl-cycloheptanecarbonyloxy)-1-(pyridin-2-ylcarbamoylmethyl)-1-azonia-bicyclo[2.2.2]octane bromide (1 nM) and indacaterol (10 nM), a combination of N-[2-(Diethylamino)ethyl]-N-(2-{[2-(4-hydroxy-2-oxo-2,3-dihydro-1,3-benzothiazol-7-yl)ethyl]amino}ethyl)-3-[2-(1-naphthyl)ethoxy]propanamide dihydrobromide (10 nM) and (R)-3-(1-Phenyl-cycloheptanecarbonyloxy)-1-(pyridin-2-ylcarbamoylmethyl)-1-azonia-bicyclo[2.2.2]octane bromide (1 nM) and, or a combination of N-Cyclohexyl-N^3-[2-(3-fluorophenyl)ethyl]-N-(2-{[2-(4-hydroxy-2-oxo-2,3-dihydro-1,3-benzothiazol-7-yl)ethyl]amino}ethyl)-β-alaninamide di-D-mandelate salt (1 nM) and (R)-3-(1-Phenyl-cycloheptanecarbonyloxy)-1-(pyridin-2-ylcarbamoylmethyl)-1-azonia-bicyclo[2.2.2]octane bromide (1 nM) was added and the tissue left for 60 min. The tension was measured in each ring at 60 min following compound addition and was expressed as a % relaxation of the constriction to methacholine (1 μM) (mean±s.e.mean). Data were collected using the Chart 4 software (ADInstruments, Charlgrove, UK).

[3] = class symbols of M3 Binding IC50, read-out: M3 pIC50 (converted)

Row | Compound | GVS weight increase [1] | IC50 [2, 3] [nM] | further results
1 | CCN(CC)CCN(CCNCCc1ccc(O)c2[nH]c(=O)sc12)C(=O)CCOCCc1cccc(Cl)c1 [BA2, N-[2-(Diethylamino)ethyl]-N-(2-{[2-(4-hydroxy-2-oxo-2,3-dihydro-1,3-benzothiazol-7-yl)ethyl]amino}ethyl)-3-[2-(3-chlorophenyl)ethoxy]propanamide dihydrobromide] |  |  | β2 Int Act (β2): 0.7
2 | O=C(C[N+]12CCC(CC1)[C@@H](OC(=O)C1(c3ccccc3)CCCCCC1)C2)Nc1cnccn1.[Br-] [Example 1, (R)-3-(1-Phenyl-cycloheptanecarbonyloxy)-1-(pyrazin-2-ylcarbamoylmethyl)-1-azonia-bicyclo[2.2.2]octane bromide] | 3 % w/w |  | IC50 ([2]; read-out: M3 pIC50 (converted)): 0.0794 nM
3 | O=C(C[N+]12CCC(CC1)[C@@H](OC(=O)C1(c3ccccc3)CCCCCC1)C2)Nc1cnccn1.[Cl-] [Example 2, (R)-3-(1-Phenyl-cycloheptanecarbonyloxy)-1-(pyrazin-2-ylcarbamoylmethyl)-1-azonia-bicyclo[2.2.2]octane chloride] | 9 % w/w |  | 
4 | O=C(C[N+]12CCC(CC1)[C@@H](OC(=O)C1(c3ccccc3)CCCCCC1)C2)Nc1ccccn1.[Cl-] [Example 3, (R)-3-(1-Phenyl-cycloheptanecarbonyloxy)-1-(pyridin-2-ylcarbamoylmethyl)-1-azonia-bicyclo[2.2.2]octane chloride] | negligible | < 2 | 
5 | O=C(C[N+]12CCC(CC1)[C@@H](OC(=O)C1(c3ccccc3)CCCCCC1)C2)Nc1ccccn1.[Br-] [Example 4, (R)-3-(1-Phenyl-cycloheptanecarbonyloxy)-1-(pyridin-2-ylcarbamoylmethyl)-1-azonia-bicyclo[2.2.2]octane bromide] | negligible |  | percentage relaxation of the constriction to methacholine (guinea pig trachea; 1 nM, listed as Compound Z): 9±9.4%; percentage relaxation of the constriction to methacholine (guinea pig trachea; 1 nM, listed as compound Z): 9±4.3% and 5±1.8%
6 | O=C(C[N+]12CCC(CC1)[C@@H](OC(=O)C1(c3ccccc3)CCCCCC1)C2)Nc1cnccn1 [Example 5, (R)-3-(1-Phenyl-cycloheptanecarbonyloxy)-1-(pyrazin-2-ylcarbamoylmethyl)-1-azonia-bicyclo[2.2.2]octane 1-hydroxy-naphthalene-2-sulfonate] | ~0.3 % w/w |  | 
7 | O=C(C[N+]12CCC(CC1)[C@@H](OC(=O)C1(c3ccccc3)CCCCCC1)C2)Nc1cnccn1 [Example 6, (R)-3-(1-Phenyl-cycloheptanecarbonyloxy)-1-(pyrazin-2-ylcarbamoylmethyl)-1-azonia-bicyclo[2.2.2]octane 2,5-dichloro-benzenesulfonate] | ~0.2 % w/w |  | 
8 | O=C(C[N+]12CCC(CC1)[C@@H](OC(=O)C1(c3ccccc3)CCCCCC1)C2)Nc1cnccn1 [Example 7, (R)-3-(1-Phenyl-cycloheptanecarbonyloxy)-1-(pyrazin-2-ylcarbamoylmethyl)-1-azonia-bicyclo[2.2.2]octane hemi-naphthalene-1,5-disulfonate] | 1.6 % w/w |  | 
9 | O=C(C[N+]12CCC(CC1)[C@@H](OC(=O)C1(c3cccc(F)c3)CCCCCC1)C2)Nc1cnccn1 [Example 8, (R)-3-[1-(3-Fluoro-phenyl)-cycloheptanecarbonyloxy]-1-(pyrazin-2-ylcarbamoylmethyl)-1-azonia-bicyclo[2.2.2]octane bromide] |  | < 2 | 
10 | O=C(C[N+]12CCC(CC1)[C@@H](OC(=O)C1(c3cccc(F)c3)CCCCCC1)C2)Nc1ccon1 [Example 9, (R)-3-[1-(3-Fluoro-phenyl)-cycloheptanecarbonyloxy]-1-(isoxazol-3-ylcarbamoylmethyl)-1-azonia-bicyclo[2.2.2]octane bromide] |  | < 2 | 
11 | O=C(C[N+]12CCC(CC1)[C@@H](OC(=O)C1(c3ccccc3)CCCCCC1)C2)Nc1ccc(F)cn1 [Example 10, (R)-1-[(5-Fluoro-pyridin-2-ylcarbamoyl)-methyl]-3-(1-phenyl-cycloheptanecarbonyloxy)-1-azonia-bicyclo[2.2.2]octane chloride] |  | < 2 | 
12 | Cc1cc(NC(=O)C[N+]23CCC(CC2)[C@@H](OC(=O)C2(c4ccccc4)CCCCCC2)C3)ccn1 [Example 11, (R)-1-[(2-Methyl-pyridin-4-ylcarbamoyl)-methyl]-3-(1-phenyl-cycloheptanecarbonyloxy)-1-azonia-bicyclo[2.2.2]octane chloride] |  | < 2 | 
13 | O=C(C[N+]12CCC(CC1)[C@@H](OC(=O)C1(c3ccccc3)CCCCCC1)C2)Nc1cccnc1 [Example 12, (R)-3-(1-Phenyl-cycloheptanecarbonyloxy)-1-(pyridin-3-ylcarbamoylmethyl)-1-azonia-bicyclo[2.2.2]octane chloride] |  | < 2 | 
14 | O=C(C[N+]12CCC(CC1)[C@@H](OC(=O)C1(c3ccccc3)CCCCCC1)C2)Nc1cccnn1 [Example 13, (R)-3-(1-Phenyl-cycloheptanecarbonyloxy)-1-(pyridazin-3-ylcarbamoylmethyl)-1-azonia-bicyclo[2.2.2]octane bromide] |  | < 2 | 
15 | O=C(C[N+]12CCC(CC1)[C@@H](OC(=O)C1(c3ccccc3)CCCCCC1)C2)Nc1ccccn1 [Example 14, (R)-3-(1-Phenyl-cycloheptanecarbonyloxy)-1-(pyridin-2-ylcarbamoylmethyl)-1-azonia-bicyclo[2.2.2]octane hemi-naphthalene-1,5-disulfonate] | 1 % w/w |  | 
16 | CCc1cc2c(cc1CC)CC(NC[C@H](O)c1ccc(O)c3[nH]c(=O)ccc13)C2 [indacaterol, reference compound] |  |  | percentage relaxation of the constriction to methacholine (guinea pig trachea; 10 nM): 24±6.9%
17 | N-Cyclohexyl-N^3-[2-(3-fluorophenyl)ethyl]-N-(2-{[2-(4-hydroxy-2-oxo-2,3-dihydro-1,3-benzothiazol-7-yl)ethyl]amino}ethyl)-β-alaninamide di-D-mandelate [compound W] |  |  | percentage relaxation of the constriction to methacholine (guinea pig trachea; 1 nM): 23±10%
